Legend:
[1] = TLC analysis of stability after purification; assay type: physicochemical; settings: 24 hours after purification, in sodium ascorbate aqueous solution (final concentration 1%)
Experimental: The crude product solution (1 μL) was analyzed by thin-layer chromatography (TLC). The sample was spotted on a thin-layer plate (silica gel 60F254), and a mixed solvent of acetonitrile/water (2/1) was used as a developing solvent. The thin-layer plate was exposed to an imaging plate (BAS IP MS 2025E, GE Healthcare) for about 15 min, and then analyzed by a bioimage analyzer (Tyhoon™ FLA-7000, Cytiva). The results are shown in FIG. 2. ^211At-AAMT-OMe in the crude product solution was detected at Rf 0.80, and the radiochemical yield (RCY) was 81.3%.
(§1) The crude product solution was injected into an HLB column (Oasis, WAT-186005125) equilibrated with sterile distilled water (1 mL) to capture the target product in the cartridge, and sterile distilled water was passed through the cartridge to elute impurities. Next, 30% ethanol solution (500 μL) was passed through the cartridge to elute the target product into sodium ascorbate aqueous solution (500 μL, final concentration 1%), thus obtaining the purified product. The radiochemical yield and radiochemical purity of the purified product were 81% and 98%, respectively.
Before purification, immediately after production, 3 hours after production, and 24 hours after production, ^211At-AAMT-OMe was analyzed by thin-layer chromatography (TLC) in the same manner as described above.
as §1, with “product. This purified product was analyzed by thin-layer chromatography (TLC) in the same manner as described above.” for “product.”, “79.6%” for “81%”, “99.9%,” for “98%,”
24 hours after production, (R)-^211At-AAMT-OMe was analyzed by thin-layer chromatography (TLC) in the same manner as described above.
as §1, with “product. This purified product was analyzed by thin-layer chromatography (TLC) in the same manner as described above.” for “product.”, “75.9%” for “81%”, “99.27%,” for “98%,”
24 hours after production, ^211At-AAMT-OEt was analyzed by thin-layer chromatography (TLC) in the same manner as described above.
The crude product solution was injected into an HLB column (Oasis, WAT-186005125) equilibrated with sterile distilled water (1 mL) to capture the target product in the cartridge, and sterile distilled water was passed through the cartridge to elute impurities. […] This purified product was analyzed by thin-layer chromatography (TLC) in the same manner as described above. […]
24 hours after production, ^211At-AAMT-OPr was analyzed by thin-layer chromatography (TLC) in the same manner as described above. […]

[2] = target: HEK293-hLAT1 (Homo sapiens, UniProt Q01650); test: Cellular uptake test (Using HEK293); assay type: cell-based
HEK293-hLAT1, sequence (Q01650 whole entry): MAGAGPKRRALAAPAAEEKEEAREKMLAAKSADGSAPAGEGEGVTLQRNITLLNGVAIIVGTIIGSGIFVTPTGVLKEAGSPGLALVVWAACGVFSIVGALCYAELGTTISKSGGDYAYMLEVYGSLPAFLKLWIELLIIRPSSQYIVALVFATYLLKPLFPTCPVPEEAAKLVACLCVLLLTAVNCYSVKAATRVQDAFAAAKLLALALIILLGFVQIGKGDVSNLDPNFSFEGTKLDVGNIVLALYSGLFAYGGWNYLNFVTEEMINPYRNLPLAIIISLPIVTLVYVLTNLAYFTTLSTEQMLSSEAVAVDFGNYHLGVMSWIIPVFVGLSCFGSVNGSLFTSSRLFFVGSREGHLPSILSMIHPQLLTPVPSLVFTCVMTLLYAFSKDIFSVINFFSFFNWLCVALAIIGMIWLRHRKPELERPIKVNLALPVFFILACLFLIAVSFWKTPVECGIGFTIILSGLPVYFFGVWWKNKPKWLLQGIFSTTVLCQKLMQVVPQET
HEK293-hLAT1, sequence (P08195 102-630 partner): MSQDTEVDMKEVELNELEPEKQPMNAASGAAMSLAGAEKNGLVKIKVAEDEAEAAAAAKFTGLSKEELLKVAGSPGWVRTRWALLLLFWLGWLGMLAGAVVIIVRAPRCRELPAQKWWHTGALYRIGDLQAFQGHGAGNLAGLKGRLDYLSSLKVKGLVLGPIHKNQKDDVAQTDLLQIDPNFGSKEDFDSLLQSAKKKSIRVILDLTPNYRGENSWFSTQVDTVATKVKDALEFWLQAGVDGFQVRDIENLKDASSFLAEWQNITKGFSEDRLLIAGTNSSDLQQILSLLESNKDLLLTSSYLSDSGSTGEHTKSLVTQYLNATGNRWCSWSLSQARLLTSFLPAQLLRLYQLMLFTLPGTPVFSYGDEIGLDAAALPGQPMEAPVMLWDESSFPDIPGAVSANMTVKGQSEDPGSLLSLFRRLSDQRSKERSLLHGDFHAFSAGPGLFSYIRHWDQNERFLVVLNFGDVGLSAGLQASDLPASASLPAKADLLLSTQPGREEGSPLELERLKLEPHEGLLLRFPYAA
Experimental: • Cells to be Used: HEK293-Mock, HEK293-hLAT1, HEK293-hLAT2 (HEK293: Human Embryonic Kidney cells 293) • Culture medium to be used: E-MEM (containing 10% FBS, 1% P/S, 1% NEAA)
Two days before a test day, a cell suspension was prepared in such a manner that the concentration of predetermined cells was 1×10^5 cells/mL. The cell suspension was seeded in a 24-well multiculture plate at a volume of 0.5 mL per well. On the day of the test, cultures were confirmed to be subconfluent (which refers to a state where 70-80% of the well is covered in density). The cells were washed twice with warmed PBS(-) Buffer (166-23555, FUJIFILM Wako Pure Chemical Corporation), the culture medium was replaced with HBSS(-) Buffer (085-09355, FUJIFILM Wako Pure Chemical Corporation), and the plate was left to stand in an incubator (MINIcell-35, WakenBtech Co., Ltd) until an RI addition test.
^211At-AAMT-OMe or ^211At-AAMT was added to the prepared cells at 10 μL/well. BCH (LAT1 inhibitor, 20 mM) or unlabeled AMT (α-methyl tyrosine, 1 μg/mL) was previously (15 minutes before) added ([…]). The cells were cultured (CO2 5%, 37 °C), and after 30 minutes, the liquid was removed by suction using an aspirator. The cells were washed twice with PBS(-). The cells were lysed by adding 0.1N NaOH to obtain a lysate, and the radioactivity of the lysate was measured using a γ counter. After the radioactivity measurement, the lysate was loaded into a 96-well plate at a volume of 10 μL per well, the protein amount was measured by the BCA method, and the number of cells was corrected based on the protein amount. Absorbance was measured by MultiScanFC (Thermo Fisher). The uptake level of ^211At-AAMT-OMe or ^211At-AAMT into the cells (number of radioactivity counts/protein amount) was calculated.

COc1ccc(C[C@](C)(N)C(=O)O)cc1[At] [^211At-AAMT-OMe, (S)-3-astato(^211At)-O-methyl-α-methyltyrosine]
decomposition by TLC [1]: no decomposition | uptake level into cells (number of radioactivity counts/protein amount) ([2]; HEK293-hLAT1 cells (CTL), 30 minutes, 37 °C): strongly taken up into HEK293-hLAT1 cells (CTL), comparable to ^211At-AAMT | specificity of uptake ([2]; HEK293-hLAT1 cells, without and with BCH or AMT): specifically taken up into HEK293-hLAT1 cells
